Common to all, as to format: biochemical
In assay [1] the target is T1, HsCK1ε (Homo sapiens, UniProt P49674).
T1 construct: made in house; host or cells: Sf9 insect cells
Description: ADP-Glo in vitro kinase inhibition assay, CK1ε. The following applies: 10 μM ATP, read-out: CK1 % residual activity; for remaining activity at 1 µM: 1 μM compound; for remaining activity at 10 µM: 10 μM compound. On the procedure: (§1) We previouly reported that substitution at the 3-position with halogen atoms or pyridinyl or formyl groups was compatible with high potency toward Haspin kinase. To check if the current structural changes were in line with potent Haspin inhibition and high selectivity, enabling consideration of these compounds as possible targeting ligands for the PROTAC approach, compounds 2, 3, 8–11, and 15–17 were evaluated toward a panel of eight protein kinases, including Haspin, as well as other kinases known to be frequently cross-inhibited (CLK1, DYRK1A, CDK9/Cyclin T, GSK-3β, CK1ε, CDK5/p25, and Pim1) (Table 1). The percentage of residual kinase activity was evaluated at 10 μM and 1 μM compound concentrations. […].
(§2) Kinase inhibition was tested in 384-well plates using the ADP-GloTM assay kit (Promega, Madison, WI, USA) according to the procedure recommended by the manufacturer. Reactions were set up in a final volume of 6 μL in an appropriate kinase buffer (10 mM MgCl2, 1 mM EGTA, 1 mM DTT, 25 mM Tris-HCl pH 7.5, 50 μg/mL heparin) with either protein or peptide as the substrate in the presence of 10 μM ATP. To stop the kinase reaction, 6 μL of ADP-GloTM Kinase Reagent was added after 30 min at 30 °C. Then, after 50 min of incubation at room temperature (RT), 12 μL of Kinase Detection Reagent was added. The transmitted signal was measured after 1 h at RT using the Envision (Perkin Elmer, Waltham, MA, USA) microplate luminometer and expressed in relative light units (RLU). In order to determine the half-maximal inhibitory concentration (IC50), all assays were performed in duplicate in the absence or presence of increasing doses of the tested compounds. GraphPad Prism10 software (GraphPad Software, San Diego, CA, USA) was used to fit dose–response curves and to determine the IC50 values. Kinase activities are given as percentages of maximal activity, i.e., measured in the absence of inhibitor. Peptide substrates were obtained from Proteogenix (Schiltigheim, France).
(§3) The following protein kinases were analyzed in this study: CDK5/p25 (human, vector pGEX-2T, expressed in bacteria; kindly provided by Dr. J. H. Wang) was assayed with 0.8 μg/μL of histone H1 as substrate; HsCDK9/CyclinT (NP_001252/KAI4065659, cloned in pTEFb vector, expressed by baculovirus in Sf9 insect cells) were assayed with 0.27 μg/μL of the following peptide: […], as substrate; HsCK1ε (NP_001885, cloned in pFAST-BAC vector, expressed in Sf9 insect cells) was assayed with 0.022 μg/μL of the following peptide: […]pAYSITA (“Sp” stands for phosphorylated serine) as CK1-specific substrate; HsGSK3β (AAH12760, cloned in pFAST-BAC, expressed by baculovirus in Sf9 insect cells) were assayed with 0.010 μg/μL of GS-1 peptide, a GSK-3-selective substrate ([…]pEDEEE); HsHaspin-kd (NP_114171, kinase domain, amino acids 470–798 cloned in pGEX-6P-3, expressed in bacteria) was assayed with 0.007 μg/μL of histone H3 (1–21) peptide ([…]) as substrate; Pim-1 (KAI4018123, expressed in bacteria) was assayed with 0.8 μg/μL of histone H1 as substrate; HsCLK1 (NP_004062, cloned in pFAST-BAC, expressed in Sf9 insect cells) was assayed with 0.027 μg/μL of the peptide: […]; RnDYRK1A-kd (Rattus norvegicus, amino acids 1–499, pGEX-2TK, expressed in bacteria, gift from Dr. W. Becker, Aachen, Germany) was tested in the presence of 0.033 μg/μL of the peptide: […].
(ADP-Glo turns the ADP formed in a reaction into a luminescent signal.)

The target of assay [2] is T2, CDK5/p25 (Homo sapiens, UniProt Q00535).
T2 construct: made in house; host or cells: bacteria
T2 sequence (Q00535 whole entry): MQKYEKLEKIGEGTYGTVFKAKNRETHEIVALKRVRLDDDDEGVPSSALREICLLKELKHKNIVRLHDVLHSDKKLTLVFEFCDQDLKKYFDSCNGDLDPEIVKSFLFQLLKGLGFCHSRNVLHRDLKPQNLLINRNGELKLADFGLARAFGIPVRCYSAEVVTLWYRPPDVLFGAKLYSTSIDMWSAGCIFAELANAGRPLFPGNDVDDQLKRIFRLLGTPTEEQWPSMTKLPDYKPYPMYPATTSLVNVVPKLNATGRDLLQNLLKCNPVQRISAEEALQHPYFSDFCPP
T2 sequence (Q15078 99-307 partner limits assumed): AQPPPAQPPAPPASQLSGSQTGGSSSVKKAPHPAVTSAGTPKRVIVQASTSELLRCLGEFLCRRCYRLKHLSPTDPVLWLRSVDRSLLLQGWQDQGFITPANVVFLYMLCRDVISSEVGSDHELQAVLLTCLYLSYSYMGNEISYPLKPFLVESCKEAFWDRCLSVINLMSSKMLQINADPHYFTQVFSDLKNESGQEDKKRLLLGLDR
The assay can be described thus: ADP-Glo in vitro kinase inhibition assay, CDK5/p25. The following applies: 10 μM ATP, read-out: CDK5 % residual activity; for remaining activity at 1 µM: 1 μM compound; for remaining activity at 10 µM: 10 μM compound. Here is the method: as §1, §2, §3

The target of assay [3] is T3, Pim-1 (Homo sapiens, UniProt P11309).
T3 construct: made in house; host or cells: bacteria
T3 sequence (P11309 whole entry): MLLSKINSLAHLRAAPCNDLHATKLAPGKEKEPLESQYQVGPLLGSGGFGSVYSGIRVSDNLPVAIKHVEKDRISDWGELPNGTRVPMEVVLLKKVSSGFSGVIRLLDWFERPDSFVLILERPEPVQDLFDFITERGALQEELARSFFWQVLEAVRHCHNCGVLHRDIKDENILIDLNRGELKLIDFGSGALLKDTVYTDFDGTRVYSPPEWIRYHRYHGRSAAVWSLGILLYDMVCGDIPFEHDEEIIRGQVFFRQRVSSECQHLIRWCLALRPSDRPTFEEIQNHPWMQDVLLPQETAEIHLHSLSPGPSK
Description: ADP-Glo in vitro kinase inhibition assay, Pim-1. Conditions: 10 μM ATP; for remaining activity at 1 µM: 1 μM compound; for remaining activity at 1 µM / remaining activity at 10 µM: read-out: PIM1 % residual activity; for remaining activity at 10 µM: 10 μM compound; for IC50: read-out: PIM1 IC50. Here is the method: as §1, §2, §3

Assay [4] deals with T4, HsCLK1 (Homo sapiens, UniProt P49759).
T4 construct: made in house; host or cells: Sf9 insect cells
T4 sequence (P49759 whole entry): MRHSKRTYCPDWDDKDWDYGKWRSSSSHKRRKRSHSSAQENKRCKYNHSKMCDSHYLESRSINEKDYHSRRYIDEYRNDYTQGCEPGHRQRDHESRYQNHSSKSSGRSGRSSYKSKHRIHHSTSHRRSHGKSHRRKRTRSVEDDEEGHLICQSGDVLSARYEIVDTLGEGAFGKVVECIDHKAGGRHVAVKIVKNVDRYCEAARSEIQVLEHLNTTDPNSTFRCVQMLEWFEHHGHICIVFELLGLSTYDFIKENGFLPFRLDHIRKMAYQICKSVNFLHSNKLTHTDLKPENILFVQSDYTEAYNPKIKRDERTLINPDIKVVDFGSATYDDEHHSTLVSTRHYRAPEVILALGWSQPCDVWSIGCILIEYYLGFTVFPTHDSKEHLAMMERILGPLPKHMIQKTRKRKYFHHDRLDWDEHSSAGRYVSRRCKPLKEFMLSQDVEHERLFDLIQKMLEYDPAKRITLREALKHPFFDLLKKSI
Description: ADP-Glo in vitro kinase inhibition assay, CLK1. The following applies: 10 μM ATP; for remaining activity at 1 µM: 1 μM compound; for remaining activity at 1 µM / remaining activity at 10 µM: read-out: CLK1 % residual activity; for remaining activity at 10 µM: 10 μM compound. On the procedure: as §1, §2, §3

The target in assay [5] is T5, HsGSK3β (Homo sapiens, UniProt P49841).
T5 construct: made in house; host or cells: Sf9 insect cells (baculovirus)
T5 sequence (P49841 whole entry): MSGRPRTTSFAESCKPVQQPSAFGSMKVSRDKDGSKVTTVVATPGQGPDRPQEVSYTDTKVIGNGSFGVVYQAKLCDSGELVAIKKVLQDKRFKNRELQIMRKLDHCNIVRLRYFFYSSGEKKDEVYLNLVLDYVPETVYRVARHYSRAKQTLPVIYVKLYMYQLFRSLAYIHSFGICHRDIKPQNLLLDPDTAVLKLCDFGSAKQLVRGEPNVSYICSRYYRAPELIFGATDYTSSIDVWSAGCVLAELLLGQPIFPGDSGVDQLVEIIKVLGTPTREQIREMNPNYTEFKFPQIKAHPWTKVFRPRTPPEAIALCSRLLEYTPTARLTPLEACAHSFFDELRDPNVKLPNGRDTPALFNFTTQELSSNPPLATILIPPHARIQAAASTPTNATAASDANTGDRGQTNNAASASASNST
The assay can be described thus: ADP-Glo in vitro kinase inhibition assay, GSK3β. Conditions: 10 μM ATP, read-out: GSK3 % residual activity; for remaining activity at 1 µM: 1 μM compound; for remaining activity at 10 µM: 10 μM compound. Here is the method: as §1, §2, §3

The target of assay [6] is T6, RnDYRK1A-kd (Rattus norvegicus, UniProt Q63470).
T6 construct: Rattus norvegicus, amino acids 1–499, pGEX-2TK; made in house; host or cells: bacteria
The assay can be described thus: ADP-Glo in vitro kinase inhibition assay, DYRK1A. Conditions: 10 μM ATP; for remaining activity at 1 µM: 1 μM compound; for remaining activity at 1 µM / remaining activity at 10 µM: read-out: DYRK1A % residual activity; for remaining activity at 10 µM: 10 μM compound. On the procedure: as §1, §2, §3

Assay [7] deals with T7, HsHaspin-kd (Homo sapiens, UniProt Q8TF76).
T7 construct: kinase domain, amino acids 470–798 cloned in pGEX-6P-3; made in house; host or cells: bacteria
T7 sequence (Q8TF76 470-798): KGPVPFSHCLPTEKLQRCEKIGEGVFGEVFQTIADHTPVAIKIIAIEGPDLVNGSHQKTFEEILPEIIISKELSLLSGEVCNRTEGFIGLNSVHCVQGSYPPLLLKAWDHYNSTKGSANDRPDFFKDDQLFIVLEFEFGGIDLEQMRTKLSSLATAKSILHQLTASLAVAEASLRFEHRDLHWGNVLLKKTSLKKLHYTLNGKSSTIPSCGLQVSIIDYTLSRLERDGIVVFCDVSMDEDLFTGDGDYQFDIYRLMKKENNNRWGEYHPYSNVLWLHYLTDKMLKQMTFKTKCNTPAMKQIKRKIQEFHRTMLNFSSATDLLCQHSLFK
The assay can be described thus: ADP-Glo in vitro kinase inhibition assay, Haspin. The following applies: for remaining activity at 1 µM: 1 μM compound; for remaining activity at 1 µM / IC50 / remaining activity at 10 µM: 10 μM ATP, duplicate; for remaining activity at 1 µM / remaining activity at 10 µM: read-out: Haspin % residual activity; for remaining activity at 10 µM: 10 μM compound; for SI: selectivity index = IC50 second most inhibited kinase/IC50 Haspin: second most inhibited kinase named in parentheses below the value (PIM1 or CLK1). On the procedure:
as §1, §2, §3

Assay [8] deals with T8, HsCDK9/CyclinT (Homo sapiens, UniProt P50750).
T8 construct: made in house; host or cells: Sf9 insect cells (baculovirus)
T8 sequence (P50750 whole entry): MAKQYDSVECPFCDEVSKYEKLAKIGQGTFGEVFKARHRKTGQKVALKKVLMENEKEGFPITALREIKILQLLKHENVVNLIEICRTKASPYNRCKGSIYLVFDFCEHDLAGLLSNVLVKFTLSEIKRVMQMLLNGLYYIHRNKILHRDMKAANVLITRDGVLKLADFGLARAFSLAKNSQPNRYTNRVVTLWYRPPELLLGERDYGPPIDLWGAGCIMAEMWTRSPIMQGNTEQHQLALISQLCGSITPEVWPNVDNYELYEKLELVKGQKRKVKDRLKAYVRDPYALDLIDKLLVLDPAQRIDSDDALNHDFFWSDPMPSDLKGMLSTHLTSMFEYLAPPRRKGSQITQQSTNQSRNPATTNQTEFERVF
T8 sequence (O60563 whole entry partner): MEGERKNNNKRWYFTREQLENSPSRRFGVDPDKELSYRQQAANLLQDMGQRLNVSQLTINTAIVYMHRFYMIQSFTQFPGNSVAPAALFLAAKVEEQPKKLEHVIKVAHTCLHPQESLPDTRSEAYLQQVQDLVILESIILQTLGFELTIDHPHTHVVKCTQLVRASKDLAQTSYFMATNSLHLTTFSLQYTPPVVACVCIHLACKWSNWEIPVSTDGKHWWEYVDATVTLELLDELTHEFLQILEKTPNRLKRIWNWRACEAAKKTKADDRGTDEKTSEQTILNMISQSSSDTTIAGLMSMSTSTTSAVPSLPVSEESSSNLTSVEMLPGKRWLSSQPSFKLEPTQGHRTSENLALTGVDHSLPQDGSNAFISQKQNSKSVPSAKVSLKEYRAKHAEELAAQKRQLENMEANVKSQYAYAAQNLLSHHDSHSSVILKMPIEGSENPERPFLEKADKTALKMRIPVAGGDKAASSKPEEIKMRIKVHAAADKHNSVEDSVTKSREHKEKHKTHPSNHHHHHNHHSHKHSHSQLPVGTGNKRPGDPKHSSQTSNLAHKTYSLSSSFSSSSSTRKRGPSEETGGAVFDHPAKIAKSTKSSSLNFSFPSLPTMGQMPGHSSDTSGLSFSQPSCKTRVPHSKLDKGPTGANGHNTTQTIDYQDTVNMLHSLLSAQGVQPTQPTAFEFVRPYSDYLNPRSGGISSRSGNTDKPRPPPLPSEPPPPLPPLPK
The assay can be described thus: ADP-Glo in vitro kinase inhibition assay, CDK9/CyclinT. The following applies: 10 μM ATP, read-out: CDK9 % residual activity; for remaining activity at 1 µM: 1 μM compound; for remaining activity at 10 µM: 10 μM compound. On the procedure: as §1, §2, §3

Molecules are shown by their SMILES.

T1 sequence (P49674 whole entry): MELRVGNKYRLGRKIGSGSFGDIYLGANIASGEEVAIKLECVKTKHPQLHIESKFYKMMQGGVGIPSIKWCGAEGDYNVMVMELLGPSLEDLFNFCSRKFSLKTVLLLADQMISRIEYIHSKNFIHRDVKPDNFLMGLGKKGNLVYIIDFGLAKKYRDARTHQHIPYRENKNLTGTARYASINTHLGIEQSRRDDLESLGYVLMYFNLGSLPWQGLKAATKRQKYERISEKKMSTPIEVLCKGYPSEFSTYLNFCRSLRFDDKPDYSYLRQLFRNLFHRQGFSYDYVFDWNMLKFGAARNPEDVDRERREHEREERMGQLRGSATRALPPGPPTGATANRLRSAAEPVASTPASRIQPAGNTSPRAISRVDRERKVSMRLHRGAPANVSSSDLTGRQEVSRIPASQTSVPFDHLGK

The term IC50 denotes the concentration needed to halve the response being measured. Consider `c1cc2cc3c(-c4cn[nH]c4)c[nH]c3cc2cn1` [Compound 16, 3-(1H-Pyrazol-4-yl)-1H-pyrrolo[3,2-g]isoquinoline], for which the remaining activity at 1 µM in assay [1] came to 77%; in assay [2], 91%; in assay [3] it was 20%; in assay [4], 4%; in assay [5], 94%; in assay [6], 11%. For the same compound, in assay [7], the remaining activity at 1 µM turned out to be 0%. Moreover, the remaining activity at 10 µM amounted to 12% in assay [1]; 10% in assay [2]; 0% in assay [3]; 0% in assay [4]; 17% in assay [5]; 0% in assay [6]. The remaining activity at 10 µM in assay [7] was determined as 0%. Besides, the IC50 amounted to 102 nM in assay [4], 163 nM in assay [6] and 12.4 nM in assay [7]. Moreover, the “SI: selectivity index = IC50 second most inhibited kinase/IC50 Haspin” value in assay [7] is 8.2.

For the compound `COC(=O)/C=C/c1c[nH]c2cc3cnccc3cc12` [Compound 8, Methyl (E)-3-(1H-Pyrrolo[3,2-g]isoquinolin-3-yl)prop-2-enoate], the remaining activity at 1 µM in assay [1] worked out at 90%; in assay [2], 72%; in assay [3], 26%; in assay [4], 55%; in assay [8], 79%; in assay [5] it was 78%. In addition, the remaining activity at 1 µM was 43% in assay [6] and 11% in assay [7]. For the same compound, the remaining activity at 10 µM in assay [1] was found to be 77%; in assay [2], 100%; in assay [3] it was 8%; in assay [4], 22%; in assay [8], 51%; in assay [5] it was 71%. For the same compound, the remaining activity at 10 µM in assay [6] was found to be 16%; in assay [7], 6%. The results for the IC50 in assay [3], in assay [6] and in assay [7] were 404 nM, 1130 nM and 15.5 nM, respectively. Further, the “SI: selectivity index = IC50 second most inhibited kinase/IC50 Haspin” value in assay [7] is 26.1.

As to `Nc1ccc(-c2c[nH]c3cc4cnccc4cc23)cn1` [Compound 3, 5-(1H-Pyrrolo[3,2-g]isoquinolin-3-yl)pyridin-2-amine], the remaining activity at 1 µM in assay [1] worked out at 78%; in assay [2] it was 100%; in assay [3], 17%; in assay [4], 59%; in assay [8], 83%; in assay [5] it was 80%. Further, the remaining activity at 1 µM in assay [6] turned out to be 15%; in assay [7], 7%. In addition, the remaining activity at 10 µM in assay [1] is 63%; in assay [2], 100%; in assay [3], 7%; in assay [4] it was 18%; in assay [8], 44%; in assay [5], 58%. Further, the remaining activity at 10 µM was 0% in assay [6] and 1% in assay [7]. Further, the half-inhibitory concentration (IC50) worked out at 93.7 nM in assay [3], 212 nM in assay [6] and 10.6 nM in assay [7]. Moreover, the “SI: selectivity index = IC50 second most inhibited kinase/IC50 Haspin” value in assay [7] is 8.8.

With `c1cc2cc3c(-c4cc[nH]n4)c[nH]c3cc2cn1` [Compound 15, 3-(1H-Pyrazol-3-yl)-1H-pyrrolo[3,2-g]isoquinoline], the remaining activity at 1 µM is 100% in assay [1]; 98% in assay [2]; 44% in assay [3]; 32% in assay [4]; 100% in assay [5]; 39% in assay [6]. Besides, the remaining activity at 1 µM in assay [7] is 0%. Moreover, the remaining activity at 10 µM in assay [1] came to 48%; in assay [2], 76%; in assay [3], 0%; in assay [4], 4%; in assay [5], 86%; in assay [6], 1%. In assay [7], the remaining activity at 10 µM is 0%. For the same compound, the 50% inhibitory concentration (IC50) in assay [3] came to 222 nM; in assay [4], 503 nM; in assay [6] it was 324 nM; in assay [7], 30.6 nM. The “SI: selectivity index = IC50 second most inhibited kinase/IC50 Haspin” value in assay [7] was > 7.

For the compound `c1c[nH]c(-c2c[nH]c3cc4cnccc4cc23)c1` [Compound 17, 3-(1H-Pyrrol-2-yl)-1H-pyrrolo[3,2-g]isoquinoline], the remaining activity at 1 µM in assay [1] amounted to 92%; in assay [2] it was 75%; in assay [3], 91%; in assay [4] it was 47%; in assay [8], 76%; in assay [5] it was 71%. The remaining activity at 1 µM stood at 69% in assay [6] and 6% in assay [7]. Further, the remaining activity at 10 µM was found to be 81% in assay [1]; 81% in assay [2]; 33% in assay [3]; 36% in assay [4]; 39% in assay [8]; 65% in assay [5]. Further, the results for the remaining activity at 10 µM in assay [6] and in assay [7] were 19% and 0%, respectively. The compound further registered a 50% inhibitory concentration (IC50) in assay [7] of 81.3 nM.

For the origin of these results see publication PMC12655252, “Synthesis of 1H-Pyrrolo[3,2-g]isoquinoline Derivatives as Ligands Targeting Haspin Kinase” (Molecules, 2025).
